# Assay results from PubChem BioAssay AID1996.
# Conditions: buffer; pH 7.4; 200.0 µM
row,SMILES,solubility kinetic
1,O=C(Cc1cccs1)NCc1ccc(Cl)cc1,23.5 µg/mL
2,COc1cc(C(=O)Nc2ccc(C(=O)c3cccs3)cc2)cc(OC)c1OC,8.2 µg/mL
3,CS(=O)(=O)c1ccc(Cl)c(NC(=O)CCN2C(=O)NC3(CCCC3)C2=O)c1,> 62.1 µg/mL
4,O=C(NC1CN2CCC1CC2)c1cccc(Cl)c1 (centres undefined),> 39.7 µg/mL
5,Cc1cccc(Cn2cc(C=O)c3ccccc32)c1,14.5 µg/mL
6,COc1cccc(C=O)c1OCCCOc1cccc2cccnc12,34.9 µg/mL
7,O=C(NCC1CCCO1)c1ccc(COc2ccccc2)cc1 (centres undefined),> 46.7 µg/mL
8,CCCC(C)NC(=O)CSc1nc2ccc(C)cc2[nH]1 (centres undefined),> 43.7 µg/mL
9,Cc1onc(-c2ccccc2)c1C(=O)NCCc1ccncc1,> 46.1 µg/mL
10,O=C(N/C(=C/c1ccccc1)C(=O)N1CCCCC1)c1ccco1,> 48.7 µg/mL
11,Cc1ccc(C)c(S(=O)(=O)N2CCNCC2)c1,> 38.2 µg/mL
12,N#CC(C(=O)c1ccccc1)=C1SCCS1,1.8 µg/mL
13,CN(C)c1cccc(C(=O)NC2CCCc3ccccc32)c1 (centres undefined),11.6 µg/mL
14,Cc1ccc2[nH]c(C(=O)N3CCC(C(N)=O)CC3)cc2c1,> 42.8 µg/mL
15,O=C(NC1CCCN(CCc2ccccc2)C1)c1c(F)cccc1F (centres undefined),> 51.7 µg/mL
16,COc1ccc(O)c(CNc2ccccc2F)c1,34 µg/mL
17,CC(C(=O)OCC(=O)Nc1ccc(S(N)(=O)=O)cc1)N1C(=O)c2ccccc2C1=O (centres undefined),> 64.7 µg/mL
18,CCN1C(=O)/C(=C\N(C)C)S/C1=N\S(=O)(=O)c1ccccc1,49.3 µg/mL
19,CCN(c1ccccc1)S(=O)(=O)c1ccc(OC)c(NC(=O)c2ccc(=O)[nH]c2)c1,24.2 µg/mL
20,CCCn1cnc2cc(NCc3cccs3)ccc21,> 40.7 µg/mL

row,SMILES,solubility kinetic
1,CCOC(=O)c1cc(NC(=O)c2cccs2)ccc1N1CCOCC1,14.8 µg/mL
2,O=c1[nH]cnc2c1ncn2[C@@H]1O[C@H](CO)[C@@H](O)[C@H]1O,> 40.2 µg/mL
3,Clc1ccc(C2CSc3c4ncnc-4ncn32)cc1 (centres undefined),33.9 µg/mL
4,CC(C)(CN=C1NS(=O)(=O)c2ccccc21)CNC(=O)c1ccccc1,> 55.7 µg/mL
5,CC(OC(=O)c1ccc(S(=O)(=O)NCc2ccco2)cc1)C(=O)Nc1ccccc1 (centres undefined),7.4 µg/mL
6,CSc1nsc(SC)c1NC(=O)Nc1ccccc1C,1 µg/mL
7,O=C(CNC(=O)c1ccc(Br)o1)NCc1ccc(F)cc1,> 53.3 µg/mL
8,CCN(C(=O)CSc1nc2ccc(Cl)cc2[nH]1)C1CCS(=O)(=O)C1 (centres undefined),> 58.2 µg/mL
9,Cl.OC(CN1CCOCC1)Cn1c2c(c3ccccc31)CCCC2 (centres undefined),51.3 µg/mL
10,COc1ccc(CN(C)C(=O)CNC(=O)c2ccc(C)cc2)cc1,> 49 µg/mL
11,NC(=S)N(c1ccccc1)c1ccccc1,> 34.2 µg/mL
12,Cc1c(NS(=O)(=O)c2cccc(C(=O)N3CCCC3)c2)c(=O)n(-c2ccccc2)n1C,> 66.1 µg/mL
13,CC(NC(=O)Cn1cc(C(F)(F)F)ccc1=O)c1ccc(F)cc1 (centres undefined),23.5 µg/mL
14,Cc1ccccc1C(=O)Nc1cccc(NC(=O)c2ccc(F)cc2)c1,1.8 µg/mL
15,O=C(NCCc1ccccc1)C(=O)c1c[nH]c2ccccc12,0.4 µg/mL
16,COCc1nc2oc3ccc(C)cc3c(=O)c2cc1C(=O)OC,3.9 µg/mL
17,O=C(O)C(Cc1c[nH]c2ccccc12)N1C(=O)C2C3c4ccccc4C(c4ccccc43)[C@@H]2C1=O (some centres undefined),37.1 µg/mL
18,CCN(CC)C(=O)C12CC3CC(CC(Br)(C3)C1)C2,32.7 µg/mL
19,CNS(=O)(=O)c1cccc(C(=O)OCC(=O)c2ccc3[nH]c(=O)[nH]c3c2)c1,> 58.4 µg/mL
20,CCOc1ccc(C(=O)NCC(=O)N2CCN(Cc3ccccc3)CC2)cc1,> 57.2 µg/mL

row,SMILES,solubility kinetic
1,O=C(c1ccc(F)cc1)N1CCCC(C(=O)N2CCCCC2)C1 (centres undefined),> 47.8 µg/mL
2,COc1ccc(OC)c(S(=O)(=O)NC2CCCCNC2=O)c1 (centres undefined),> 49.3 µg/mL
3,CCOc1ccc(NC(=O)C2CC3CCC2C3)cc1 (centres undefined),6.1 µg/mL
4,NC(=S)Cc1ccc(Cl)cc1Cl,30.9 µg/mL
5,N=c1oc2ccccc2cc1C(=O)NCc1ccccc1,6.7 µg/mL
6,COc1nc(N)nc2nc[nH]c12,> 24.8 µg/mL
7,CCC/C(O)=C1\C(=O)CCCC1=NCCc1c(C)[nH]c2ccc(C)cc12,0.4 µg/mL
8,CC1CCC(NC(=O)C2CC(=O)N(c3ccc(Cl)cc3)C2)CC1 (centres undefined),2.3 µg/mL
9,Cn1cnc([N+](=O)[O-])c1Sc1ccc(C(C)(C)C)cc1,6.1 µg/mL
10,O=C(CSc1ncc(-c2ccccc2)[nH]1)Nc1ccccc1F,> 49.1 µg/mL
11,CCC(=O)OCC(=O)Nc1ccc2c(c1)OCO2,> 37.7 µg/mL
12,CC(C)c1ccc(CSc2ccc(S(=O)(=O)N3CCOCC3)cn2)cc1,1.9 µg/mL
13,Cc1ccc(C(NC(=O)Nc2ccccn2)C(Cl)(Cl)Cl)cc1F (centres undefined),< 0.3 µg/mL
14,CC(C)C(=O)Nc1csc(C(F)(F)F)c1-c1ccccc1,12.8 µg/mL
15,Cn1ccnc1SCC(=O)Nc1cccc(C#N)c1,> 40.8 µg/mL
16,Cc1ccc(S(=O)(=O)NCc2ccc3c(c2)OCO3)cc1C,5 µg/mL
17,O=C(COC(=O)c1ccc([N+](=O)[O-])o1)NCCc1ccccc1,> 47.7 µg/mL
18,COc1ccc(-c2cc(=O)oc3c(C)c(OCC(=O)N(C)C)ccc23)cc1,9.6 µg/mL
19,CCc1ccc(CCOc2ccc(CC3SC(=O)NC3=O)cc2)nc1.Cl (centres undefined),1.8 µg/mL
